Here are results for 3 compounds from PMC2394492 (British Journal of Cancer, 2003).

The subject of data set [1] is dihydropyrimidine dehydrogenase (DPD). Conditions: in vitro; background statement, no reference given; cited from earlier work.
The conditions of data set [2]: cited from earlier work.
Data set [3] can be described thus: Plasma pharmacokinetics of 5-FU and FBAL after PVI of 5-FU and oral S-1 in patients. Type of data set: in vivo, human.
Protocol: Infusion was carried out with the use of a battery-operated pump (STC-508, Terumo Co., Ltd., Tokyo, Japan) for five consecutive days. […] After a washout period of 9 days, patients received S-1 in two divided doses daily for 28 consecutive days. S-1 was administered orally within 1 h after breakfast and supper, at about 0900 and 1900 hours The daily dose of S-1 in terms of tegafur was 80 mg day^−1 in patients with a body surface area (BSA) of <1.25 m^2, 100 mg day^−1 in those with a BSA of ⩾1.25 m^2 to <1.5 m^2, and 120 mg day^−1 in those with a BSA of ⩾1.5 m^2.
On days 2–4, one blood sample was obtained at 0900 hours before the start of the next 24-h cycle. During oral administration of S-1, blood samples were taken on day 1 before the first dose of the day and at 1, 2, 4, 6, and 10 h. On days 2–4 of S-1 treatment, blood samples were taken before administration in the morning and at 4 and 10 h. On day 5, blood samples were obtained at 0, 2, 4, and 10 h. Peripheral blood samples (6 ml per sampling time) were collected in heparinised tubes and centrifuged at 1000 g for 15 min at 4°C. The plasma was stored at −20°C until analysis. Urine was collected from 0 to 24 h after the start of drug administration on day 1 of each treatment and refrigerated during the collection period.
Data set [4] concerns the target T1, dihydropyrimidine dehydrogenase (DPD) (Homo sapiens, UniProt Q12882).
T1 construct: from tissue; host or cells: patients in vivo (DPD mainly in the liver); plasma sampled
T1 sequence (Q12882 4-1025): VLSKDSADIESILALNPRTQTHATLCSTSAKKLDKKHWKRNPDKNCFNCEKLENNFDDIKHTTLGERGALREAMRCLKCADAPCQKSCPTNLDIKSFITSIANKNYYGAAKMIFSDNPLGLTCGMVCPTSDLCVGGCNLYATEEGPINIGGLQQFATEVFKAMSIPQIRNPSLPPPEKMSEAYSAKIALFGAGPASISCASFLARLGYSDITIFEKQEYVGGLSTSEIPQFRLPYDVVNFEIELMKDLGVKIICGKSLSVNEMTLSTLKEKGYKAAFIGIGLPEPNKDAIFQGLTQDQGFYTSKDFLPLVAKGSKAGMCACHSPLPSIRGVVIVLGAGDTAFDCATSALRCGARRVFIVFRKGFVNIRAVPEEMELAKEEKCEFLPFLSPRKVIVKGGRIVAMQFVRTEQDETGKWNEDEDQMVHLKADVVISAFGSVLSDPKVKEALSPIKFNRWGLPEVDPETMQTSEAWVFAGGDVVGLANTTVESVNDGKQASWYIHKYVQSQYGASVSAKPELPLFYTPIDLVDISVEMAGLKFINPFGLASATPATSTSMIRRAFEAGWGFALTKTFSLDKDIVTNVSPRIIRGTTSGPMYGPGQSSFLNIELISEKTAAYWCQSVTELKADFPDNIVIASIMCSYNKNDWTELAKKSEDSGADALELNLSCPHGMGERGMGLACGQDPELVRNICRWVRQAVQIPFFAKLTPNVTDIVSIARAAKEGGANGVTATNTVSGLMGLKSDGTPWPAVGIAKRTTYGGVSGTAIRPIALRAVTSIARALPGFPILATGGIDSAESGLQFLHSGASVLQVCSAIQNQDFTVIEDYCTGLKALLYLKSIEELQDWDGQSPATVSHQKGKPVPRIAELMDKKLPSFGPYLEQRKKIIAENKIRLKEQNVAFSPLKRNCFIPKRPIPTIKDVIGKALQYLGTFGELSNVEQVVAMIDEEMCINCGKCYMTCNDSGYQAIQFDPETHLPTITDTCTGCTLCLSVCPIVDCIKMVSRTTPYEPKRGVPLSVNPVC
Nature of the data set: Plasma uracil concentration as surrogate marker of DPD inhibition (pharmacodynamic analysis). The data set is classed as in vivo. The settings on record: for AUC of uracil: 10 patients, surrogate marker of DPD inhibition. The protocol: All 10 patients received 5-FU by PVI at a rate of 250 mg m^−2 day^−1 via a peripheral vein. Infusion was carried out with the use of a battery-operated pump (STC-508, Terumo Co., Ltd., Tokyo, Japan) for five consecutive days. The assigned daily dose of 5-FU was diluted in 500 ml of normal saline for infusion.
On days 1 and 5 of 5-FU PVI, blood samples were taken at 0 (before administration), 2, 6, and 10 h after the start of the infusion (0900 hours in all patients). On days 2–4, one blood sample was obtained at 0900 hours before the start of the next 24-h cycle. […] On day 5, blood samples were obtained at 0, 2, […], and 10 h. Peripheral blood samples (6 ml per sampling time) were collected in heparinised tubes and centrifuged at 1000 g for 15 min at 4°C. The plasma was stored at −20°C until analysis. Urine was collected from 0 to 24 h after the start of drug administration on day 1 of each treatment and refrigerated during the collection period.
Analysis of 5-FU and uracil was carried out as described by [Matsushima et al (1997)], with minor modification. 5-Fluorouracil and uracil were extracted with ethyl acetate after washing with dichloromethane and were subjected to a reaction to induce their trimethylsilyl derivatives. 5-Fluorouracil and uracil were analysed by electron impact ionisation gas-chromatography/mass-spectrometry (GC–MS). For analysis of 5-FU by GC–MS, stable isotopes were used as internal standards. The measurable ranges of plasma or urine levels were 1–400 ng ml^−1 for 5-FU and 5–2000 ng ml^−1 for uracil. For analysis of FBAL, plasma was deproteinised with ethanol and washed with dichloromethane. F-β-alanine was treated with 2,4-dinitrofluorobenzene to derive its dinitrophenyl ester, and the reaction product was extracted with dichloromethane under acidic conditions. The reaction product was separated by high-pressure liquid chromatography (LC) with a reversed-phase column, and LC/tandem-mass spectrometry was performed with the use of negative ion-electron spray ionisation. DL-norvaline was used as an internal standard. […]

Where [5] appears, read: patients given 5-FU by PVI, ref Lokich et al, 1989.

Regarding `Oc1cc(O)c(Cl)cn1` [CDHP, 5-chloro-2,4-dihydroxypyridine], the “DPD-inhibitory activity relative to that of uracil” value in data set [1] is given as 180 fold.
For `CCCCCOC(=O)Nc1nc(=O)n([C@@H]2O[C@H](C)[C@@H](O)[C@H]2O)cc1F` [capecitabine], the “incidence of grade 3 HFS” value in data set [2] (capecitabine, ref Van Cutsem et al, 2000, 2001, Hoff et al, 2001) is reported as 15–18%. For the same compound, in data set [2] (capecitabine, ref Van Cutsem et al, 2000), the “incidence of HFS” value is 45%. Besides, the incidence of cardiotoxicity in data set [2] (randomised phase II trial, metastatic colorectal cancer, five out of 108, ref Van Cutsem et al, 2000) is listed as 5%. In data set [2] (randomised phase II trial, metastatic colorectal cancer, ref Van Cutsem et al, 2000), the incidence of paresthesia is 12%.
`O=c1[nH]cc(F)c(=O)[nH]1` [5-FU, 5-fluorouracil]: the “dose-limiting toxicity (DLT)” value in data set [2] (5-FU by PVI, ref Lokich et al, 1989) is “HFS”. Further, in data set [2] (setting [5]), the “incidence of grade 3 leukopenia” value is listed as 1%, the “incidence of hand–foot syndrome” value is reported as “about 23%” and the incidence of stomatitis entry is reported as “about 23%”. Further, the “time to steady state of plasma 5-FU concentration after the start of PVI” value in data set [3] (PVI of 5-FU) is 2 h. Also, the “AUC0–10 h of 5-FU” value in data set [3] (plasma, day 5 (abstract)) stood at 728 ± 113 ng·h/mL. For the same compound, the AUC of uracil in data set [4] (Day 1, 0 to 10 h) came to 200 ± 60 ng·h/mL. The compound also displayed an AUC of uracil in data set [4] (Day 5, 0 to 10 h) of 252 ± 60 ng·h/mL. Also, in data set [4] (day 5 (abstract)), the “AUC0–10 h of uracil” value is 252 ± 60 ng·h/mL.
